This note sets out measurements from patent US4309407A, “Alkenyl-substituted thienylalkanecarboxylic acids and derivatives thereof” (A. Nattermann & Cie. GmbH, priority 1979, dated 1982).

The test system of series [1] is rats. The series can be described thus: Ulcer-Inducing Effect on rats. In kind it is in vivo. As to conditions: rat. The text has this: 4. Ulcer-Inducing Effect on rats [methodology according to W. J. R. Whittle, Brit. J. Pharmacol. 55, 242-3 (1975)].
Series [2] concerns Rat Paw Edema. The series is described as follows: Rat Paw Edema Test. In kind it is in vivo. The text has this: 1. Rat Paw Edema Test [methodology as per Hillebrecht, Arzneim.-Forsch (4), 607 (1954)].
In series [3] the test system is granuloma. The series can be described thus: Granuloma Test (Cotton Pellet Test). The class given is in vivo, rat. The text has this:
2. Granuloma Test (Cotton Pellet Test) [methodology as per R. Meier et al., Experientia 6, 469 (1950)]

Series [4] has as its system Adjuvans Arthritis. The series can be described thus: Adjuvans Arthritis Test, Rat, p.o. In kind it is in vivo. As to conditions: 0.1 mg/kg p.o. The text has this:
3. Adjuvans Arthritis Test, Rat, p.o. [methodology as per C. N. Pearson, Proc. Soc. Exp. Biol. 91, 95-101 (1956)].

As to `CCCCCC(=O)C=Cc1ccc(CCCCCCCCC(=O)OC)s1` [Example 5, 9-[5-(3-oxooct-1-enyl)thien-2-yl]nonanoic acid methyl ester], the Ulcer-inducing effect in series [1] (in vivo, 1 mg/kg) was 0; in series [1] (in vivo, 10 mg/kg), 0; in series [1] (in vivo, 100 mg/kg), 0. Further, the “Inhibiting effect (%)” value in series [2] (0.1 mg/kg per os) was -26%; in series [2] (dose printed ".0" mg/kg per os), -38%; in series [4] (14th day p.i.), -28%; in series [4] (17th day p.i.) it was -35%. Moreover, the results for the “Decrease in weight of granuloma (%)” value in series [3] (rat dose 0.1 mg/kg per os) and in series [3] (rat dose 1.0 mg/kg per os) were -24% and -13%, respectively.

In the case of `COc1ccc2c(c1)c(CC(=O)O)c(C)n2C(=O)c1ccc(Cl)cc1` [Indomethacin, indomethacin], the Ulcer-inducing effect entry is reported as “++” in series [1] (3.2 mg/kg per os), “+++” in series [1] (5.6 mg/kg per os) and “+++” in series [1] (7.5 mg/kg per os). Further, the “Inhibiting effect (%)” value is given as -25% in series [2] (3.2 mg/kg per os), -45% in series [2] (5.6 mg/kg per os), -29% in series [4] (14th day p.i.) and -37% in series [4] (17th day p.i.). The “Decrease in weight of granuloma (%)” value in series [3] (rat dose 0.1 mg/kg per os) is -21%; in series [3] (rat dose 3.2 mg/kg per os) it was -27%.
